Patent US4190674A, “3-Fluoro-N-cyclopropylcinnamide” (Burroughs Wellcome Co., priority 1977, dated 1980)

How the values were obtained:
Format in all cases: in vivo
rat = assay: Maximal Electroschock Test (MES), rat; details: ip
From the text: (§1) 1. Maximal Electroschock Test (MES) in mice, a method described by Woodbury and Davenport, Arch int. Pharmacodyn. Ther. 92, P. 97-107 (1952).
(§2) In the MES pharmacological test referred to hereinbefore, the stated compounds had the given ED50 when administered i.p. to mice or rats as appropriate.

muscle tone = assay: Muscle tone in mammals (general statement); details: in words
mice = assay: Maximal Electroschock Test (MES) in mice; details: Mus musculus, ip
From the text: as §1, §2

[1] = tested on: polysynaptic reflex contractions; assay: Muscle Relaxant Activity: polysynaptic reflex contractions in the cat; details: oral dose of from 100-150 mg/kg
Procedure: (§3) The effect of trans 3-fluoro-N-cyclopropylcinnamamide as a centrally acting muscle relaxant was determined using a method based on that described in Berger, F. M. & Bradley, W. (Br. J. Pharmac. Chemother, (1946), 1, 265-272) and Crankshaw, D. P. & Raper, C. (Br. J. Pharmac. (1970), 38, 148-156).

[2] = tested on: monosynaptic kneed-jerk reflex; assay: Muscle Relaxant Activity: monosynaptic knee-jerk reflex in the cat; details: oral dose of from 100-150 mg/kg
Procedure: as §3

O=C(/C=C/c1cccc(C(F)(F)F)c1)NC1CC1 [Trans 3-Trifluoromethyl-N-Cyclopropylcinnamamide] showed an ED50 (rat) of 56 mg/kg.
With O=C(/C=C/c1cccc(F)c1)NC1CC1 [formula (IA), 3-fluoro-N-cyclopropylcinnamamide] the muscle tone (muscle tone) was “decreases muscle tone in mammals”.
O=C(/C=C/c1cccc(Br)c1)NC1CC1 [trans 3-bromo-N-cyclopropylcinnamamide, Trans 3-Bromo-N-cyclopropylcinnamamide] gave an ED50 (mice) of 77 mg/kg.
With O=C(/C=C/c1cccc(F)c1)NC1CC1 [trans 3-fluoro-N-cyclopropylcinnamamide, Trans 3-Fluoro-N-cyclopropylcinnamamide] the polysynaptic reflex contractions [1] was “suppressed polysynaptic reflex contractions”, the monosynaptic kneed-jerk reflex [2] was “without affecting the monosynaptic kneed-jerk reflex” and the ED50 (mice) was 60 mg/kg.
